From ChEMBL document CHEMBL3758138, “Synthesis and pharmacological evaluation of dehydroabietic acid thiourea derivatives containing bisphosphonate moiety as an inducer of apoptosis” (Eur J Med Chem, 2016)
pIC50: −log10 of the molar value. The source made the active and inactive calls. The calls are words filed in the database; no cut-off is given here.

What was measured:
[1] = Cytotoxic activity against human SKOV3 cells assessed as inhibition of cell growth after 48 hrs by MTT assay; format: functional, cell-based; details: SK-OV-3, 48 h
[2] = Cytotoxic activity against human Bel7404 cells assessed as inhibition of cell growth after 48 hrs by MTT assay; format: functional, cell-based; details: BEL-7404, 48 h
A549 = experiment: Cytotoxic activity against human A549 cells assessed as inhibition of cell growth after 48 hrs by MTT assay; format: functional, cell-based; details: A549, 48 h
[3] = Cytotoxic activity against human HCT116 cells assessed as inhibition of cell growth after 48 hrs by MTT assay; format: functional, cell-based; details: HCT-116, 48 h
NCI-H460 = experiment: Cytotoxic activity against human NCI-H460 cells assessed as inhibition of cell growth after 48 hrs by MTT assay; format: functional, cell-based; details: NCI-H460, 48 h
[4] = target: Cyclin-dependent kinase 2/cyclin E1 (Homo sapiens, UniProt P24941); experiment: Inhibition of human recombinant C-terminal His6-tagged full length human Cdk2/human recombinant N-terminal GST-tagged full-length Cyclin E using histone H1 substrate after 40 mins by radiometric filter binding assay; format: protein-complex assay
SK-OV-3 [5] = experiment: Induction of apoptosis in human SKOV3 cells assessed as increase in chromatin condensation at 5 uM after 24 hrs by Hoechst 33258 staining based fluorescence microscopic analysis; format: functional, cell-based
SK-OV-3 [6] = experiment: Induction of apoptosis in human SKOV3 assessed as loss of membrane integrity at 5 uM after 12 to 24 hrs by AO/EB staining based fluorescence microscopic analysis; format: functional
SK-OV-3 [7] = experiment: Induction of ROS generation in human SKOV3 cells at 5 uM after 12 hrs by DCF-DA dye based flow cytometry (reference value: 12.9%); format: functional
SK-OV-3 [8] = experiment: Induction of ROS generation in human SKOV3 cells at 5 uM after 24 hrs by DCF-DA dye based flow cytometry (reference value: 12.9%); format: functional
SK-OV-3 [9] = experiment: Induction of apoptosis in human SKOV3 cells assessed as depolarization of mitochondria at 5 uM after 12 to 24 hrs by JC-1 dye based fluorescence microscopic analysis; format: functional
SK-OV-3 [10] = experiment: Induction of apoptosis in human SKOV3 cells assessed as increase in cytochrome c level in cytosol at 5 uM after 12 to 24 hrs by Western blot analysis; format: functional, cell-based
SK-OV-3 [11] = experiment: Induction of apoptosis in human SKOV3 cells assessed as caspase-9 cleavage at 5 uM after 12 to 24 hrs by Western blot analysis; format: functional, cell-based
SK-OV-3 [12] = experiment: Induction of apoptosis in human SKOV3 cells assessed as caspase-3 cleavage at 5 uM after 12 to 24 hrs by Western blot analysis; format: functional, cell-based
SK-OV-3 [13] = experiment: Induction of apoptosis in human SKOV3 cells assessed as caspase-3 activity by Ac-DEVD-pNA based spectrophotometric analysis; format: functional, cell-based; details: TDE = time-dependent effect
SK-OV-3 [14] = experiment: Induction of apoptosis in human SKOV3 cells assessed as caspase-9 activity by Ac-LEHD-pNA based spectrophotometric analysis; format: functional, cell-based; details: TDE = time-dependent effect
SK-OV-3 [15] = experiment: Induction of apoptosis in human SKOV3 cells after 12 hrs by Annexin V-FITC/PI staining based flow cytometry; format: functional, cell-based
SK-OV-3 [16] = experiment: Induction of apoptosis in human SKOV3 cells assessed as late apoptotic cells at 3 uM after 12 hrs by Annexin V-FITC/PI staining based flow cytometry (reference value: 1.5%); format: functional
SK-OV-3 [17] = experiment: Induction of apoptosis in human SKOV3 cells assessed as late apoptotic cells at 5 uM after 12 hrs by Annexin V-FITC/PI staining based flow cytometry (reference value: 1.5%); format: functional
SK-OV-3 [18] = experiment: Induction of apoptosis in human SKOV3 cells assessed as early apoptotic cells at 3 uM after 12 hrs by Annexin V-FITC/PI staining based flow cytometry (reference value: 2.8%); format: functional
SK-OV-3 [19] = experiment: Induction of apoptosis in human SKOV3 cells assessed as early apoptotic cells at 5 uM after 12 hrs by Annexin V-FITC/PI staining based flow cytometry (reference value: 2.8%); format: functional
SK-OV-3 [20] = experiment: Induction of ROS generation in human SKOV3 cells at 5 uM after 12 hrs by DCF-DA dye based flow cytometry relative to control; format: functional
[21] = Upregulation of Bax protein expression in human SKOV3 cells at 5 uM after 12 to 24 hrs by Western blot analysis; format: functional, cell-based; details: SK-OV-3
[22] = Downregulation of Bcl-2 protein expression in human SKOV3 cells after 12 to 24 hrs by Western blot analysis; format: functional, cell-based; details: SK-OV-3
SK-OV-3 [23] = experiment: Induction of Fas protein expression in human SKOV3 cells after 12 to 24 hrs by Western blot analysis; format: functional, cell-based
SK-OV-3 [24] = experiment: Induction of apoptosis in human SKOV3 cells assessed as reduction in caspase-8 level in cytoplasm at 5 uM after 12 to 24 hrs by Western blot analysis; format: functional, cell-based
[25] = Cell cycle arrest in human SKOV3 cells assessed as accumulation at G1 phase at 3 uM after 24 hrs by propidium iodide staining based flow cytometry (reference value: 53.38%); format: functional; details: SK-OV-3
[26] = Cell cycle arrest in human SKOV3 cells assessed as accumulation at G2 phase at 3 uM after 24 hrs by propidium iodide staining based flow cytometry (reference value: 8.85%); format: functional; details: SK-OV-3
[27] = Cell cycle arrest in human SKOV3 cells assessed as accumulation at S phase at 3 uM after 24 hrs by propidium iodide staining based flow cytometry (reference value: 37.77%); format: functional; details: SK-OV-3
[28] = Cell cycle arrest in human SKOV3 cells assessed as accumulation at G1 phase at 5 uM after 24 hrs by propidium iodide staining based flow cytometry (reference value: 53.38%); format: functional; details: SK-OV-3
[29] = Cell cycle arrest in human SKOV3 cells assessed as accumulation at G2 phase at 5 uM after 24 hrs by propidium iodide staining based flow cytometry (reference value: 8.85%); format: functional; details: SK-OV-3
[30] = Cell cycle arrest in human SKOV3 cells assessed as accumulation at S phase at 5 uM after 24 hrs by propidium iodide staining based flow cytometry (reference value: 37.77%); format: functional; details: SK-OV-3

Compound: CCOP(=O)(OCC)C(CNc1cc(C)c(C)cc1NC(=S)NC(=O)[C@]1(C)CCC[C@]2(C)c3ccc(C(C)C)cc3CC[C@@H]12)P(=O)(OCC)OCC
- pIC50 [1]: 4.71
- pIC50 [2]: 4.90
- pIC50 (A549): 4.86
- pIC50 [3]: 4.88
- pIC50 (NCI-H460): 4.55
- pIC50 [4]: 5.59

Compound: CCOP(=O)(OCC)C(CNc1ccc(F)cc1NC(=S)NC(=O)[C@]1(C)CCC[C@]2(C)c3ccc(C(C)C)cc3CC[C@@H]12)P(=O)(OCC)OCC
- Activity (SK-OV-3 [5]): Dose-dependent effect
- Activity (SK-OV-3 [6]): Active
- Activity (SK-OV-3 [7]): 33.6%
- Activity (SK-OV-3 [8]): 49.3%
- Activity (SK-OV-3 [9]): Active
- Activity (SK-OV-3 [10]): Active
- Activity (SK-OV-3 [11]): Active
- Activity (SK-OV-3 [12]): Active
- Activity (SK-OV-3 [13]): tde
- Activity (SK-OV-3 [14]): tde
- pIC50 [1]: 5.75
- pIC50 [2]: 5.15
- pIC50 (A549): 5.16
- pIC50 [3]: 5.22
- pIC50 (NCI-H460): 5.09
- Activity (SK-OV-3 [15]): Dose-dependent effect
- Activity (SK-OV-3 [16]): 14.4%
- Activity (SK-OV-3 [17]): 5.7%
- Activity (SK-OV-3 [18]): 14.5%
- Activity (SK-OV-3 [19]): 24.7%
- fold change (FC) (SK-OV-3 [20]): 2
- Activity [21]: Dose-dependent effect
- Activity [22]: Dose-dependent effect
- Activity (SK-OV-3 [23]): Dose-dependent effect
- Activity (SK-OV-3 [24]): Active
- Activity [25]: 59.8%
- Activity [26]: 13.4%
- Activity [27]: 26.9%
- Activity [28]: 68.1%
- Activity [29]: 10.5%
- Activity [30]: 21.4%
- pIC50 [4]: 6.89

Compound: O=c1[nH]cc(F)c(=O)[nH]1 [FLUOROURACIL]
- pIC50 [1]: 4.65
- pIC50 [2]: 4.52
- pIC50 [3]: 4.61
- pIC50 (NCI-H460): 4.45

Compound: CCOP(=O)(OCC)C(CNc1ccccc1NC(=S)NC(=O)[C@]1(C)CCC[C@]2(C)c3ccc(C(C)C)cc3CC[C@@H]12)P(=O)(OCC)OCC
- pIC50 [1]: 4.78
- pIC50 [2]: 4.90
- pIC50 (A549): 4.82
- pIC50 [3]: 4.94
- pIC50 (NCI-H460): 4.86
- pIC50 [4]: 4.82

Compound: CCOP(=O)(OCC)C(CNc1ccc(Cc2ccc(NC(=S)NC(=O)[C@]3(C)CCC[C@]4(C)c5ccc(C(C)C)cc5CC[C@@H]34)cc2)cc1)P(=O)(OCC)OCC
- pIC50 [1]: 4.54
- pIC50 [2]: 4.44
- pIC50 (A549): 4.47
- pIC50 [3]: 4.59
- pIC50 (NCI-H460): 4.42
- pIC50 [4]: 4.53

Compound: CC(C)c1ccc2c(c1)CC[C@H]1[C@](C)(C(=O)O)CCC[C@]21C [DEHYDROABIETIC ACID]
- pIC50 [1]: 4.19
- pIC50 [2]: 4.54
- pIC50 (A549): 4.25
- pIC50 [3]: 4.52
- pIC50 (NCI-H460): 4.12
- pIC50 [4]: 4.44

Compound: CCOP(=O)(OCC)C(CNc1ccc(S(=O)(=O)c2ccc(NC(=S)NC(=O)[C@]3(C)CCC[C@]4(C)c5ccc(C(C)C)cc5CC[C@@H]34)cc2)cc1)P(=O)(OCC)OCC
- pIC50 [1]: 4.27
- pIC50 [2]: 4.49
- pIC50 (A549): 4.38
- pIC50 [3]: 4.25
- pIC50 (NCI-H460): 4.49
- pIC50 [4]: 6.19

Compound: CCOP(=O)(OCC)C(CNc1ccc(Sc2ccc(NC(=S)NC(=O)[C@]3(C)CCC[C@]4(C)c5ccc(C(C)C)cc5CC[C@@H]34)cc2)cc1)P(=O)(OCC)OCC
- pIC50 [1]: 4.39
- pIC50 [2]: 4.41
- pIC50 (A549): 4.41
- pIC50 [3]: 4.47
- pIC50 (NCI-H460): 4.39
- pIC50 [4]: 6.00

Compound: CCOP(=O)(OCC)C(CNc1ccc(NC(=S)NC(=O)[C@]2(C)CCC[C@]3(C)c4ccc(C(C)C)cc4CC[C@@H]23)cc1)P(=O)(OCC)OCC
- pIC50 [1]: 4.78
- pIC50 [2]: 4.92
- pIC50 (A549): 4.80
- pIC50 [3]: 4.91
- pIC50 (NCI-H460): 4.89
- pIC50 [4]: 4.75

Compound: CCOP(=O)(OCC)C(CNc1cccc(NC(=S)NC(=O)[C@]2(C)CCC[C@]3(C)c4ccc(C(C)C)cc4CC[C@@H]23)c1C)P(=O)(OCC)OCC
- pIC50 [1]: 4.76
- pIC50 [2]: 4.92
- pIC50 (A549): 4.80
- pIC50 [3]: 4.92
- pIC50 (NCI-H460): 4.85
- pIC50 [4]: 5.22

Compound: CCOP(=O)(OCC)C(CNc1cccc(NC(=S)NC(=O)[C@]2(C)CCC[C@]3(C)c4ccc(C(C)C)cc4CC[C@@H]23)c1)P(=O)(OCC)OCC
- pIC50 [1]: 4.78
- pIC50 [2]: 4.99
- pIC50 (A549): 4.81
- pIC50 [3]: 4.95
- pIC50 (NCI-H460): 4.86
- pIC50 [4]: < 4.30

Compound: CCOP(=O)(OCC)C(CNc1ccc(Oc2ccc(NC(=S)NC(=O)[C@]3(C)CCC[C@]4(C)c5ccc(C(C)C)cc5CC[C@@H]34)cc2)cc1)P(=O)(OCC)OCC
- pIC50 [1]: 4.23
- pIC50 [2]: 4.50
- pIC50 (A549): 4.70
- pIC50 [3]: 4.35
- pIC50 (NCI-H460): 4.42
- pIC50 [4]: 4.39

Compound: CCOP(=O)(OCC)C(CNc1cc(Cl)c(NC(=S)NC(=O)[C@]2(C)CCC[C@]3(C)c4ccc(C(C)C)cc4CC[C@@H]23)cc1Cl)P(=O)(OCC)OCC
- pIC50 [1]: 4.66
- pIC50 [2]: 4.61
- pIC50 (A549): 4.79
- pIC50 [3]: 4.69
- pIC50 (NCI-H460): 4.62
- pIC50 [4]: < 4.30
